Reference: patent US20260317367A1, “SALTS INCLUDING CRYSTALLINE SALTS OF 25-HYDROXY-CHOLEST-5-EN-3-SULFATE AND METHODS FOR PREPARING SAME” (Durect Corporation, priority 2022, published 2026)
“Also recorded” adds a separate entry of the source. Where a name gives a salt, the structure may show the parent alone.

Key:
Assay type in all cases: physicochemical
[1] = Final pH of the solubility sample solutions in aqueous media; details: for pH of the solubility sample, 0.9% Sodium Chloride: 0.9% sodium chloride (blank 5.8); for pH of the solubility sample, 5% Dextrose: 5% dextrose (blank 4.7); for pH of the solubility sample, FaSSGF: FaSSGF (blank 1.5, 1.6); for pH of the solubility sample, FaSSIF: FaSSIF (blank 6.5, 6.5); for pH of the solubility sample, FeSSIF: FeSSIF (blank 4.9, 5.0); for pH of the solubility sample, Water: water (blank 6.3)
Method: 25HC3S salts were weighed in 8 mL or 4 mL glass vials with Teflon coated screw caps. Aliquots of each solvent were added to each sample and vortexed for about one minute until excess solid remained. Samples were placed on shaker at room temperature with 210 motion per minute shaking.
After one day, samples were pulled and checked if excess solid was present. About 1.5 mL aliquot of each sample was centrifuged at 12000 rpm for 12 to 15 minutes. […] Aliquots of the top clear solution of each centrifuged sample in MeOH, EtOH, IPA and ACN were diluted with diluent (water:MeOH 95:5) and assayed by HPLC. Samples of the salts in aqueous media were assayed by HPLC without dilution.
5.1 Solubility of 25HC3S Salts in Aqueous Media

[2] = Solid-state chemical stability of 25HC3S salts at 2-8° C., 60° C. and 80° C. (HPLC assay and degradation products); details: for % Impurities, Total / % Impurities, 25-HC: ND = Not Detected; for % Impurities, 25-HC: 25-Hydroxy-Cholesterol; for % Recovery: vs 2-8° C.
Method: (§1) Approximately 25 mg of each crystalline 25HC3S salt was added to 20 mL glass vials and each powder weight was recorded. Four vials were prepared for each salt and stored at 2-8° C. or 80° C. according to Table B2. The samples were scheduled initially to pull for testing at 3 weeks and 6 weeks' time points.
(§2) For those […] salts, the remaining vials stored at 2-8° C. for 3 weeks were allocated for storage at 60° C. for 1 week. Additional stability data was generated according to Table B3.
Based on the molecular weights, and expected UV response factors of each salt used in this study, the expected analytical sample concentrations were within the range of the 25HC3S sodium reference standards (0.75 mg/mL to 1.25 mg/mL as 25HC3S sodium salt). However, due to the lower-than-expected purity of the 25HC3S benzathine salt, an additional standard was prepared at 0.125 mg/mL as 25HC3S sodium salt.
Samples were prepared by pipetting 20 mL of 100% methanol into each vial and mixing well, with sonication and vortexing to fully dissolve the samples for HPLC analysis.
Samples were prepared by pipetting 20 mL of 100% methanol into each vial followed by two rounds of sonication for 30 minutes, with 30 seconds of vortexing before and after each round. Sample aliquots were then centrifuged at 10,000 RPM for 10 minutes and the supernatant collected for HPLC analysis.
Samples were prepared by pipetting 20 mL of 100% methanol into each vial, followed by 5 seconds of vortexing. The undissolved powder in methanol was quantitatively transferred into 200 mL volumetric flasks. The sample vials were rinsed 3 times with methanol, with each rinsate transferred to the 200 mL volumetric flasks. The volumetric flasks were filled to about 90% volume and sonicated for 10 minutes to fully dissolve the powder. The flasks were filled to volume with methanol, mixed well and aliquots collected for HPLC analysis.
HPLC analysis was performed.

[3] = Appearance (color, clumping, flowability) of stored 25HC3S salts
Method: as §1, §2
For appearance, each unopened vial was visually examined for color, clumping, and flowability.

[4] = Angle of repose of 25HC3S salts
Method: Angle of repose is measured as follows. Powder is poured from a funnel onto a flat surface until a cone of powder is created. The angle of repose is calculated according to the following equation: […]
Table C1, from USP<1174> Powder Flow, describes the powder flow properties correlating to the angles of repose.
The lower the angle of repose, the more flowable is a material. Powder with an angle of repose between 25° to 30° will show excellent flow through a hopper, feed frame, die table and die bore smoothly. From 41° to greater than 66°, you may experience powder flow difficulties like rat-holing or bridging within the hopper.
The angle of repose was determined by pouring approximately 2 grams of a 25HC3S salt through a 7 mm inner diameter plastic tube into the center of a 21.14 mm diameter rubber O-ring, resulting in the formation of a powder cone of fixed diameter. The height of the cone was estimated with calipers.

[5] = Thermogravimetric analysis (TGA), weight loss
Method: Differential scanning calorimetry (DSC) is a thermoanalytical technique where the difference in the amount of heat required to increase the temperature of a sample and reference is measured as a function of temperature. Using this technique, phase transitions of a sample can be measured such as melting point. Decomposition can also be observed by DSC as can dehydration events. In the context of DSC measurements, there is also variability and the term “about” means ±1° C., and such variability is to be understood whether a DSC measurement is prefaced by “about” or not unless specified otherwise. Exemplary methods for collecting DSC data are set forth in Example 21. Thermogravimetric analysis, sometimes referred to as, thermal gravimetric analysis (TGA) is a thermal method of thermal analysis where the mass of a sample is measured as a function of time as the sample temperature changes. For example, when samples disclosed herein are heated and a loss in mass is measured prior to decomposition, this is likely indicative of the loss of water from the sample and may indicate that the sample being heated is a hydrate. Exemplary methods for collecting TGA are set forth in Example 23.
TG analysis was performed using a Mettler-Toledo TGA/DSC3 analyzer. Temperature and enthalpy adjustments were performed using indium, tin, and zinc, and then verified with indium. The balance was verified with calcium oxalate. The sample was placed in an open aluminum pan. The pan was hermetically sealed, the lid pierced, then inserted into the TG furnace. A weighed aluminum pan configured as the sample pan was placed on the reference platform. The furnace was heated under nitrogen. Each sample was heated from ambient temperature to 350° C. at 10° C./min. Although thermograms are plotted by reference temperature (x-axis), results are reported according to sample temperatures.

[6] = 2-8° C., 3 wk, listed as 25HC3S zinc
[7] = 80° C., 3 weeks, listed as 25HC3S Zinc
[8] = 2-8° C., 3 wk, listed as 25HC3S choline
[9] = 2-8° C., 5 wk, listed as 25HC3S choline
[10] = 80° C., 3 wk, listed as 25HC3S choline
[11] = 80° C., 5 wk, listed as 25HC3S choline

With `CC(CCCC(C)(C)O)C1CCC2C3CC=C4CC(OS(=O)(=O)O)CCC4(C)C3CCC12C` (stereo not shown) [Salt #3] the “pH of the solubility sample, 0.9% Sodium Chloride” value ([1]; listed as 25HC3S zinc) was 6.4, the “pH of solubility sample solution in 0.9% sodium chloride” value ([1]; 0.9% sodium chloride (medium pH 5.8)) was 6.4 and the “pH of the solubility sample, 5% Dextrose” value ([1]; listed as 25HC3S zinc) was 7.1. For the same molecule, the “pH of the solubility sample, FaSSGF” value [1] was 1.6, the “pH of the solubility sample, FaSSIF” value ([1]; listed as 25HC3S zinc) was 6.5 and the “pH of the solubility sample, FeSSIF” value [1] was 5.0. The “pH of solubility sample solution in water” value ([1]; water) was 7.4, the “pH of the solubility sample, Water” value ([1]; listed as 25HC3S zinc) was 7.4 and the Assay ([2]; 2-8° C., 3 wk, 30240 min, listed as 25HC3S zinc) was 92.6 % w/w. The “% Impurities, Total” value [2, 6] was 0.6%, the “Overall physical and chemical stability (in words)” value ([2]; 2-8° C., 60° C., 80° C.) was “least physically and chemically stable” and the “Overall physical and chemical stability (in words)” value ([2]; 2-8° C., 60° C., 80° C., listed as zinc) was “least stable”. The “% Impurities, 25-HC” value [2, 6] was 0.2%, the “Physical and chemical solid-state stability (comments)” value ([2]; 60° C., 1 week, listed as 25HC3S Zinc) was “Totally decomposed after 1 weck at 60 °C” and the Assay ([2]; 60° C., 1 wk (after 3 weeks at 2-8° C.), 10080 min, listed as 25HC3S zinc, 10080 min) was 0.0 % w/w. The “% Recovery of 2-8° C./3 wk vs 60° C./1 wk” value ([2]; 60° C., 1 wk, 10080 min, listed as 25HC3S zinc) was 0.0%, the “% Impurities, Total” value ([2]; 60° C., 1 wk, listed as 25HC3S zinc) was 100.0% and the “Physical and chemical solid-state stability (comments)” value [2, 7] was “Totally decomposed after 1 weck at 60 °C and after 3 weeks at 80 °C”. For the same molecule, the “dissolution of decomposed samples in diluent / degradants observed (comments)” value [2, 7] was “decomposed samples at 3-weeks at 80 °C did not dissolve in the diluent,; also recorded: therefore, no degradants were observed”, the “% Recovery” value ([2]; 80° C., 3 wk, 30240 min, listed as 25HC3S zinc, 30240 min) was 0.0% and the Assay ([2]; 80° C., 3 wk, 30240 min, listed as 25HC3S zinc) was 0.0 % w/w. For the same molecule, the “Stability after 1 week at 60° C. (in words)” value ([2]; solid state, 60° C., 1 week (after 3 weeks at 2-8° C.)) was “totally decomposed”, the “Stability after 3 weeks at 80° C. (in words)” value ([2]; solid state, 80° C., 3 weeks) was “totally decomposed” and the Appearance [3, 6] was “White, free flowing powder with clumping”. The Appearance ([3]; 60° C., 1 wk (after 3 weeks at 2-8° C.), listed as 25HC3S zinc) was “Light brown, melted material stuck to”, the “Appearance after 3 weeks at 80° C.” value ([3]; 80° C., 3 weeks) was “completely burned” and the Appearance ([3]; 80° C., 3 wk, listed as 25HC3S zinc) was “Dark brown, melted material stuck to”. The “Flow Property per USP<1174> Powder Flow” value ([4]; classification by angle of repose, listed as 25HC3S zinc) was “Passable - may hang up”, the “Angle of Repose” value ([4]; listed as 25HC3S zinc) was 42.4 degrees and the “Angle of Repose, Rounded Whole Number” value ([4]; listed as 25HC3S zinc) was 42 degrees. The “Weight loss by TGA, about […] C. to about 190° C.” value ([5]; about […] C. to about 190° C., may be decomposition) was 11.5% and the “Weight loss by TGA, room temperature to about 130° C.” value ([5]; room temperature to about 130° C.) was “about 5.1%”.

With `CC(CCCC(C)(C)O)C1CCC2C3CC=C4CC(OS(=O)(=O)O)CCC4(C)C3CCC12C` (stereo not shown) [Salt #4] the “pH of the solubility sample, 0.9% Sodium Chloride” value ([1]; listed as 25HC3S choline) was 8.2, the “pH of the solubility sample, 5% Dextrose” value ([1]; listed as 25HC3S choline) was 7.3 and the “pH of the solubility sample, FaSSGF” value [1] was 1.6. The “pH of the solubility sample, FaSSIF” value ([1]; listed as 25HC3S choline) was 6.5, the “pH of the solubility sample, FeSSIF” value [1] was 5.0 and the “pH of the solubility sample, Water” value ([1]; listed as 25HC3S choline) was 8.8. For the same molecule, the Assay ([2]; 2-8° C., 3 wk, 30240 min, listed as 25HC3S choline) was 101.6 % w/w, the “% Impurities, Total” value [2, 8] was 1.0% and the Assay ([2]; 2-8° C., 5 wk, 50400 min, listed as 25HC3S choline) was 108.1 % w/w. For the same molecule, the “% Impurities, Total” value [2, 9] was 0.9%, the “Overall physical and chemical stability (in words)” value ([2]; 2-8° C., 60° C., 80° C.) was “physically and chemically stable” and the “Overall physical and chemical stability (in words)” value ([2]; 2-8° C., 60° C., 80° C., listed as 25HC3S choline) was “relatively stable”. For the same molecule, the “% Impurities, 25-HC” value [2, 8] was 0.2%, the “% Impurities, 25-HC” value [2, 9] was 0.2% and the “% Impurities, 25-HC” value [2, 10] was 0.4%. The “% Impurities, 25-HC” value [2, 11] was 0.2%, the “Stressed stability at 80° C. (in words)” value ([2]; 80° C.) was “good, stressed stability” and the “% Recovery” value ([2]; 80° C., 3 wk, 30240 min, listed as 25HC3S choline, 30240 min) was 100.8%. The Assay ([2]; 80° C., 3 wk, 30240 min, listed as 25HC3S choline) was 102.4 % w/w, the “% Impurities, Total” value [2, 10] was 1.2% and the “Physical and chemical solid-state stability (comments)” value ([2]; 80° C., 5 weeks) was “Stable after 5 weeks at 80 °C physically and chemically”. The Assay ([2]; 80° C., 5 wk, 50400 min, listed as 25HC3S choline) was 105.2 % w/w, the “% Impurities, Total” value [2, 11] was 2.2% and the “Stability after 5 weeks at 80° C. (in words)” value ([2]; solid state, 80° C., 5 weeks) was “stable”. The remaining at 840 h ([2]; solid state, 80° C., 5 wk, read-out: % Recovery, 2-8° C./5 wk vs 80° C./5 wk) was 97.3%, the Appearance [3, 8] was “White, free flowing powder with clumping” and the Appearance ([3]; 2-8° C., 5 wk) was “White, free flowing powder with clumping”. The Appearance [3, 10] was “White, free flowing powder with clumping”, the Appearance ([3]; 80° C., 5 wk) was “White, free flowing powder with clumping” and the “Angle of Repose” value ([4]; listed as 25HC3S choline) was 34.9 degrees. For the same molecule, the “Angle of Repose, Rounded Whole Number” value ([4]; listed as 25HC3S choline) was 35 degrees and the “Weight loss by TGA up to 198° C. (in words)” value ([5]; up to 198° C.) was “negligible weight loss”.
